Several values for one entry are separate records, joined by “and”; a condition that tells them apart may be missing. Equal entries are not always repeated. Toxic doses and inconclusive results are not listed. Rule for the calls: active = survival T/C of 150% or more; inactive = T/C below 125% in these data.
Tested on: P388 leukemia ip, CD2F1 mice, survival T/C
Assay: NCI In Vivo Anticancer Drug Screen. Data for tumor model P388 Leukemia (intraperitoneal) in CD2F1 (CDF1) mice
Conditions: endpoint: median survival time, higher = longer survival
How it was run: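 Mice carrying the transplanted tumor received test compound or vehicle. Survival was recorded in each group, and the value is the treated-group measurement divided by that of the vehicle-treated control group.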

[1] = dose: 50.0 mg/kg/injection, schedule: Q01DX005 (ip), vehicle: saline with Tween-80
[2] = dose: 100.0 mg/kg/injection, schedule: Q01DX005 (ip), vehicle: saline with Tween-80
[3] = dose: 50.0 mg/kg/injection, schedule: Q01DX005 (ip), vehicle: Klucel (hydroxypropylcellulose) (HPC)
[4] = dose: 100.0 mg/kg/injection, schedule: Q01DX005 (ip), vehicle: Klucel (hydroxypropylcellulose) (HPC)
[5] = dose: 200.0 mg/kg/injection, schedule: Q01DX005 (ip), vehicle: Klucel (hydroxypropylcellulose) (HPC)
[6] = dose: 12.5 mg/kg/injection, schedule: Q01DX009 (ip), vehicle: saline with Tween-80
[7] = dose: 25.0 mg/kg/injection, schedule: Q01DX009 (ip), vehicle: saline with Tween-80
[8] = dose: 25.0 mg/kg/injection, schedule: Q04DX003 (ip), vehicle: saline
[9] = dose: 50.0 mg/kg/injection, schedule: Q04DX003 (ip), vehicle: saline
[10] = dose: 50.0 mg/kg/injection, schedule: Q01DX009 (ip), vehicle: Klucel (hydroxypropylcellulose) (HPC)
[11] = dose: 100.0 mg/kg/injection, schedule: Q01DX009 (ip), vehicle: Klucel (hydroxypropylcellulose) (HPC)
[12] = dose: 60.0 mg/kg/injection, schedule: Q01DX005 (ip), vehicle: Klucel (hydroxypropylcellulose) (HPC)
[13] = dose: 120.0 mg/kg/injection, schedule: Q01DX005 (ip), vehicle: Klucel (hydroxypropylcellulose) (HPC)
[14] = dose: 240.0 mg/kg/injection, schedule: Q01DX005 (ip), vehicle: Klucel (hydroxypropylcellulose) (HPC)
[15] = dose: 15.0 mg/kg/injection, schedule: Q01DX005 (ip), vehicle: Klucel (hydroxypropylcellulose) (HPC)
[16] = dose: 30.0 mg/kg/injection, schedule: Q01DX005 (ip), vehicle: Klucel (hydroxypropylcellulose) (HPC)
[17] = dose: 100.0 mg/kg/injection, schedule: Q01DX009 (ip), vehicle: saline
[18] = dose: 200.0 mg/kg/injection, schedule: Q01DX009 (ip), vehicle: saline
[19] = dose: 25.0 mg/kg/injection, schedule: Q01DX009 (ip), vehicle: saline
[20] = dose: 50.0 mg/kg/injection, schedule: Q01DX009 (ip), vehicle: saline
[21] = dose: 200.0 mg/kg/injection, schedule: Q01DX005 (ip), vehicle: saline with Tween-80

Measured: T/C

CCC(C)C(F)C(=O)O (configuration not stated)
inactive: [1] 98 % of control | [2] 88 % of control

CC(C)(C)c1cc2c(O)c(c1)Cc1cc(C(C)(C)C)cc(c1O)Cc1cc(C(C)(C)C)cc(c1O)Cc1cc(C(C)(C)C)cc(c1O)Cc1cc(C(C)(C)C)cc(c1O)Cc1cc(C(C)(C)C)cc(c1O)Cc1cc(C(C)(C)C)cc(c1O)Cc1cc(C(C)(C)C)cc(c1O)C2
inactive: [3] 101 % of control | [4] 90 % of control | [5] 99 % of control

CCCCCCN(CCCCCC)P(=O)(N1CC1C)N1CC1C (configuration not stated)
inactive: [6] 122 % of control | dose: 12.5 mg/kg/injection, schedule: Q04DX003 (ip), vehicle: saline 95 % of control | [7] 118 % of control | [8] 95 % of control | [9] 95 % of control

Oc1c(Cl)cc(Cl)cc1C1Nc2ccccc2-n2cccc21 (configuration not stated)
inactive: dose: 6.25 mg/kg/injection, schedule: Q01DX009 (ip), vehicle: saline with Tween-80 91 % of control | [6] 96 % of control | [7] 91 % of control

COc1ccccc1C1CC(c2ccccc2)=Nc2ccccc2S1 (configuration not stated)
inactive: [10] 96 % of control | [11] 100 % of control | dose: 200.0 mg/kg/injection, schedule: Q01DX009 (ip), vehicle: Klucel (hydroxypropylcellulose) (HPC) 101 % of control

CSCCC(NC(=O)C(C)NC(=O)OCc1ccccc1)C(=O)O (configuration not stated)
inactive: [3] 99 % of control | [4] 101 % of control | [5] 95 % of control

CC(/C=C/c1ccccc1)=N\NC(=S)Nc1ccc(Cl)cc1
inactive: dose: 100.0 mg/kg/injection, schedule: Q04DX002 (ip), vehicle: Klucel (hydroxypropylcellulose) (HPC) 108 % of control | dose: 200.0 mg/kg/injection, schedule: Q04DX002 (ip), vehicle: Klucel (hydroxypropylcellulose) (HPC) 107 % of control | dose: 400.0 mg/kg/injection, schedule: Q04DX002 (ip), vehicle: Klucel (hydroxypropylcellulose) (HPC) 108 % of control

Cc1nnc2n(N)c(=O)c(CC(=O)c3ccc(F)cc3)nn12
inactive: [12] 96 % of control | [13] 88 % of control | [14] 90 % of control

COC(=O)CCSC(=O)Nc1ccc(Cl)cc1
inactive: [3] 105 % of control | [4] 101 % of control | [5] 113 % of control

C=CCNc1ccc(C)cc1
inactive: dose: 33.0 mg/kg/injection, schedule: Q01DX009 (ip), vehicle: saline with Tween-80 116 % of control | dose: 50.0 mg/kg/injection, schedule: Q01DX009 (ip), vehicle: saline with Tween-80 116 % of control | dose: 100.0 mg/kg/injection, schedule: Q04DX003 (ip), vehicle: saline with Tween-80 100 % of control | dose: 200.0 mg/kg/injection, schedule: Q04DX003 (ip), vehicle: saline with Tween-80 122 % of control | dose: 400.0 mg/kg/injection, schedule: Q04DX003 (ip), vehicle: saline with Tween-80 90 % of control

CC(/C=C/c1ccc(O)cc1)=N\NC(N)=S
inactive: dose: 3.75 mg/kg/injection, schedule: Q01DX005 (ip), vehicle: Klucel (hydroxypropylcellulose) (HPC) 103 % of control | dose: 7.5 mg/kg/injection, schedule: Q01DX005 (ip), vehicle: Klucel (hydroxypropylcellulose) (HPC) 99 % of control | [15] 99 % of control | [16] 99 % of control and 104 % of control

CC(=O)O.CC(=O)O.CC[OH+]CC[OH+]CC[OH+]C1CCCC2CCC[N-]C21.[Zn] (configuration not stated)
inactive: dose: 6.25 mg/kg/injection, schedule: Q01DX005 (ip), vehicle: Klucel (hydroxypropylcellulose) (HPC) 111 % of control | dose: 12.5 mg/kg/injection, schedule: Q01DX005 (ip), vehicle: Klucel (hydroxypropylcellulose) (HPC) 105 % of control and 113 % of control (2×) | dose: 25.0 mg/kg/injection, schedule: Q01DX005 (ip), vehicle: Klucel (hydroxypropylcellulose) (HPC) 109 % of control and 113 % of control and 116 % of control

Cc1cc(O)ccc1O
inactive: [17] 100 % of control and 116 % of control | [18] 112 % of control and 117 % of control

Cc1cc(S(=O)(=O)c2ccccc2C(=O)O)nc2c1ccc1ccccc12
inactive: [3] 105 % of control | [4] 103 % of control | [5] 103 % of control

COc1ccc2cc(N3CCCC3)ccc2c1
inactive: [8] 105 % of control | [9] 96 % of control | dose: 100.0 mg/kg/injection, schedule: Q04DX003 (ip), vehicle: saline 100 % of control and 104 % of control | dose: 400.0 mg/kg/injection, schedule: Q04DX003 (ip), vehicle: saline 107 % of control

O=C(Nc1ccc(F)cc1F)Oc1cccc2cccnc12
inactive: [10] 114 % of control | [11] 112 % of control

C[C@@H](O)[C@@H]1NC(=O)[C@H]([C@@H](C)O)NC1=O
inactive: dose: 50.0 mg/kg/injection, schedule: Q01DX005 (ip), vehicle: saline 99 % of control | dose: 100.0 mg/kg/injection, schedule: Q01DX005 (ip), vehicle: saline 99 % of control | dose: 200.0 mg/kg/injection, schedule: Q01DX005 (ip), vehicle: saline 99 % of control

Nc1cc(=O)[nH]c2ncnn12
inactive: [19] 103 % of control | [20] 109 % of control | [17] 102 % of control | [18] 99 % of control

CC1(C)CC[C@]2(C(=O)O)CC[C@]3(C)C(=CC[C@@H]4[C@@]5(C)CC[C@H](O)C(C)(C)[C@@H]5CC[C@]43C)[C@@H]2C1
inactive: [6] 108 % of control | [7] 99 % of control

O=C1CN(c2ccc(Cl)cc2)C(=O)CN1/N=C/c1ccco1
inactive: [1] 103 % of control | [2] 107 % of control | [21] 100 % of control

C[C@@H]1C[C@@H]2c3cccc4c3c(cn4CO)C[C@H]2N(C)C1
inactive: [1] 100 % of control | [2] 100 % of control | [21] 107 % of control

COC(=O)[C@@H]1[C@@H]2O[C@@H]2[C@H]2O[C@H]2[C@H]1C(=O)O
inactive: dose: 6.25 mg/kg/injection, schedule: Q01DX001 (ip), vehicle: Klucel (hydroxypropylcellulose) (HPC) 113 % of control | dose: 12.5 mg/kg/injection, schedule: Q01DX001 (ip), vehicle: Klucel (hydroxypropylcellulose) (HPC) 103 % of control | dose: 25.0 mg/kg/injection, schedule: Q01DX001 (ip), vehicle: Klucel (hydroxypropylcellulose) (HPC) 100 % of control | dose: 50.0 mg/kg/injection, schedule: Q01DX001 (ip), vehicle: Klucel (hydroxypropylcellulose) (HPC) 99 % of control

Cc1csc(Nc2c3ccccc3nc3ccccc23)n1
inactive: dose: 12.5 mg/kg/injection, schedule: Q04DX002 (ip), vehicle: distilled water + Tween-80 99 % of control | dose: 25.0 mg/kg/injection, schedule: Q04DX002 (ip), vehicle: distilled water + Tween-80 98 % of control | dose: 50.0 mg/kg/injection, schedule: Q04DX002 (ip), vehicle: distilled water + Tween-80 91 % of control | dose: 100.0 mg/kg/injection, schedule: Q04DX002 (ip), vehicle: distilled water + Tween-80 91 % of control | dose: 200.0 mg/kg/injection, schedule: Q04DX002 (ip), vehicle: distilled water + Tween-80 87 % of control | dose: 400.0 mg/kg/injection, schedule: Q04DX002 (ip), vehicle: distilled water + Tween-80 100 % of control

CCc1ccc2c(-c3ccccc3)c3ccccc3c(-c3ccccc3)c2c1
inactive: dose: 12.5 mg/kg/injection, schedule: Q01DX005 (ip), vehicle: saline with Tween-80 96 % of control | dose: 25.0 mg/kg/injection, schedule: Q01DX005 (ip), vehicle: saline with Tween-80 99 % of control | [1] 88 % of control and 90 % of control | [2] 90 % of control | [21] 88 % of control

S=C(Nc1ccc(Br)cc1)SCc1ccco1
inactive: dose: 12.5 mg/kg/injection, schedule: Q01DX009 (ip), vehicle: saline 106 % of control | [19] 106 % of control | [20] 100 % of control | dose: 50.0 mg/kg/injection, schedule: Q01DX009 (ip), vehicle: suspension in saline 104 % of control | dose: 100.0 mg/kg/injection, schedule: Q01DX009 (ip), vehicle: suspension in saline 93 % of control | dose: 200.0 mg/kg/injection, schedule: Q01DX009 (ip), vehicle: suspension in saline 111 % of control

O=C(NC(=O)c1c(F)cccc1F)Nc1cc(Cl)c(F)c(Cl)c1F
inactive: [15] 98 % of control | [16] 90 % of control and 93 % of control | [12] 87 % of control and 94 % of control | [13] 93 % of control | [14] 88 % of control
